Experimental findings from US12582722B2, “Bifunctional compounds for degrading BTK via ubiquitin proteosome pathway” (NURIX THERAPEUTICS, INC., priority 2019, dated 2026) are described below.

Structures are written as SMILES.

For orientation: DC50 means the midpoint of the concentration-degradation curve. A lower DC50 goes with a more potent degrader.

For the test, the target named is T1, BTK (Homo sapiens, UniProt Q06187).
T1 construct: endogenous in cells; host or cells: Ramos (ATCC CRL-1596)
As to the kind of experiment: Cellular BTK HTRF Assay (BTK degradation in Ramos cells). It is filed as cell-based. The note with it: four hours incubation, 37° C., BTK levels relative to DMSO-treated cells. On the procedure:
Ramos (CRL-1596) cells were obtained from American Type Culture Collection and were grown in RPMI-1640 media (ATCC, 30-2001) supplemented with 10% heat-inactivated FBS (Corning Premium Fetal Bovine Serum from Fisher, MT35015CV).
Compounds of the present invention were added to 50,000 Ramos cells in round-bottom 96 well plates with a final DMSO concentration of […] and were incubated at 37° C., 5% CO2 for four hours. BTK levels were determined using Cisbio Total-BTK HTRF ([…] Time-Resolved Fluorescence) kit (63ADK064PEG) according to manufacturer's protocol. Briefly, cells were incubated in 1× supplied lysis buffer for 30 minutes. In an opaque white low volume 96 well plate (Cisbio, 66PL96005), cell lysate was combined with two different specific BTK antibodies, one conjugated with Eu^3+-Cryptate FRET donor and one conjugated with d2 FRET acceptor. Assay controls include wells containing cell lysate with only the Eu^3+-Cryptate FRET donor antibody and wells containing both HTRF antibodies and lysis buffer without cells or control lysate provided by Cisbio. HTRF ratio was calculated as (acceptor signal at 665 nm/donor signal at 620 nm)×10^4. Background HTRF levels were determined from the control well containing the donor, but no acceptor, antibody. Background HTRF levels were subtracted from all samples. Readouts were reported as HTRF levels relative to HTRF levels of DMSO-treated cells. Four-parameter non-linear regressions were performed in GraphPad Prism 7.02 to obtain DC50 values. DC50 values are provided in Table 3, wherein A<7.5 nM, 7.5 nM≤B≤50 nM, and 50 nM<C<500 nM.
Background: TR-FRET usually uses a lanthanide donor and a delayed reading to cut background.

T1 sequence (Q06187 whole entry): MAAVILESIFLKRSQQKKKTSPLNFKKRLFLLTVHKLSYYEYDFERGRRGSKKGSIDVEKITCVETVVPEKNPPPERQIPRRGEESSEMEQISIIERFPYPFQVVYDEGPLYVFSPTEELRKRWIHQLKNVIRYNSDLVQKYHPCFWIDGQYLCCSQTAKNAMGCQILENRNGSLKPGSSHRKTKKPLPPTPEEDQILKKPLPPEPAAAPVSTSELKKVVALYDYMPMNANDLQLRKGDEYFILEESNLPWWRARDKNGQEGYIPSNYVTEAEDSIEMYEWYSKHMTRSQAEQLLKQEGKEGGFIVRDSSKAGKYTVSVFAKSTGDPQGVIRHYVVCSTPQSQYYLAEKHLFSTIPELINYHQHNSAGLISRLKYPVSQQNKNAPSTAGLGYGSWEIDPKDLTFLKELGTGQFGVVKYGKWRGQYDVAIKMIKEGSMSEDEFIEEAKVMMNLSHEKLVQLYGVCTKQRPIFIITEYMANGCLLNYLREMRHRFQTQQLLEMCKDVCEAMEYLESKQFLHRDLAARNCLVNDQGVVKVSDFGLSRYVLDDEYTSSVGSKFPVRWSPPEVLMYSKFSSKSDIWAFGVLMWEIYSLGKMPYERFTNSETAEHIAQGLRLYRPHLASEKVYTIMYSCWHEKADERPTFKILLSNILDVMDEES

`CS(=O)(=O)c1ccc(Nc2nc(N3CCC[C@@H](NC(=O)N4CCC5(CC4)CN(Cc4ccc6c(c4)C(=O)N(C4CCC(=O)NC4=O)C6=O)C5)C3)cnc2C(N)=O)cc1` (stereo partly drawn) [Compound 29, N-[(3R)-1-{5-carbamoyl-6-[(4-methanesulfonylphenyl)amino]pyrazin-2-yl}piperidin-3-yl]-2-{[2-(2,6-dioxopiperidin-3-yl)-1,3-dioxoisoindol-5-yl]methyl}-2,7-diazaspiro[3.5]nonane-7-carboxamide] showed a DC50 of less than 7.5 nM.

With `Cn1cc(Nc2nc(N3CCC[C@@H](NC(=O)C4CCN(CC5CN(c6ccc7c(c6)C(=O)N(C6CCC(=O)NC6=O)C7=O)C5)CC4)C3)cnc2C(N)=O)cn1` (stereo partly drawn) [Compound 19, 5-[(3R)-3-[1-({1-[2-(2,6-dioxopiperidin-3-yl)-1,3-dioxoisoindol-5-yl]azetidin-3-yl}methyl)piperidine-4-amido]piperidin-1-yl]-3-[(1-methylpyrazol-4-yl)amino]pyrazine-2-carboxamide], the DC50 is less than 7.5 nM.

`CS(=O)(=O)c1ccc(Nc2nc(N3CCC[C@@H](NC(=O)C4CC5CCC(C4)N5C4CCN(c5ccc6c(c5)C(=O)N(C5CCC(=O)NC5=O)C6=O)CC4)C3)cnc2C(N)=O)cc1` (stereo partly drawn) [Compound 41, N-[(3R)-1-{5-carbamoyl-6-[(4-methanesulfonylphenyl)amino]pyrazin-2-yl}piperidin-3-yl]-8-{1-[2-(2,6-dioxopiperidin-3-yl)-1,3-dioxoisoindol-5-yl]piperidin-4-yl}-8-azabicyclo[3.2.1]octane-3-carboxamide]: the DC50 lay in the range of 50 to 500 nM.

In turn, `Cc1cc(Nc2nc(N3CCC[C@@H](NC(=O)C4CCN(CC5CCN(c6ccc7c(c6)C(=O)N(C6CCC(=O)NC6=O)C7=O)CC5)C4)C3)cnc2C(N)=O)sn1` (stereo partly drawn) [Compound 15, 5-[(3R)-3-[1-({1-[2-(2,6-dioxopiperidin-3-yl)-1,3-dioxoisoindol-5-yl]piperidin-4-yl}methyl)pyrrolidine-3-amido]piperidin-1-yl]-3-[(3-methyl-1,2-thiazol-5-yl)amino]pyrazine-2-carboxamide] registered a DC50 of less than 7.5 nM.

The compound `CS(=O)(=O)c1ccc(Nc2nc(N3CCC[C@@H](NC(=O)CCCCCCc4cccc5c4CN(C4CCC(=O)NC4=O)C5=O)C3)cnc2C(N)=O)cc1` (stereo partly drawn) [Compound 5, 5-[(3R)-3-{7-[2-(2,6-dioxopiperidin-3-yl)-1-oxo-3H-isoindol-4-yl]heptanamido}piperidin-1-yl]-3-[(4-methanesulfonylphenyl)amino]pyrazine-2-carboxamide] returned a DC50 of 50 to 500 nM.

Compound `Cn1cc(Nc2nc(N3CCC[C@@H](N4CCC5(CCN(CC6CN(c7ccc8c(c7)C(=O)N(C7CCC(=O)NC7=O)C8=O)C6)CC5)C4=O)C3)cnc2C(N)=O)cn1` (stereo partly drawn) [Compound 50, 5-[(3R)-3-[8-({1-[2-(2,6-dioxopiperidin-3-yl)-1,3-dioxoisoindol-5-yl]azetidin-3-yl}methyl)-1-oxo-2,8-diazaspiro[4.5]decan-2-yl]piperidin-1-yl]-3-[(1-methylpyrazol-4-yl)amino]pyrazine-2-carboxamide] displayed a DC50 of less than 7.5 nM.

With `CS(=O)(=O)c1ccc(Nc2nc(N3CCC[C@@H](NC(=O)C4CN(CC5CCN(c6ccc7c(c6)C(=O)N(C6CCC(=O)NC6=O)C7=O)CC5)C4)C3)cnc2C(N)=O)cc1` (stereo partly drawn) [Compound 30, 5-((3R)-3-(1-((1-(2-(2,6-dioxopiperidin-3-yl)-1,3-dioxoisoindolin-5-yl)piperidin-4-yl)methyl)azetidine-3-carboxamido)piperidin-1-yl)-3-((4-(methylsulfonyl)phenyl)amino)pyrazine-2-carboxamide], the DC50 lay within 7.5 to 50 nM.

In turn, `Cc1cc(Nc2nc(N3CCC[C@@H](NC(=O)N4CCN(CC5CCN(c6ccc7c(c6)C(=O)N(C6CCC(=O)NC6=O)C7=O)CC5)CC4)C3)cnc2C(N)=O)sn1` (stereo partly drawn) [Compound 23, 5-[(3R)-3-[4-({1-[2-(2,6-dioxopiperidin-3-yl)-1,3-dioxoisoindol-5-yl]piperidin-4-yl}methyl)piperazine-1-carbonylamino]piperidin-1-yl]-3-[(3-methyl-1,2-thiazol-5-yl)amino]pyrazine-2-carboxamide] registered a DC50 of less than 7.5 nM.

Take `Cn1cc(Nc2nc(N3CCC[C@@H](N4CC5(CN(CC6CCN(c7ccc8c(c7)C(=O)N(C7CCC(=O)NC7=O)C8=O)CC6)C5)OC4=O)C3)cnc2C(N)=O)cn1` (stereo partly drawn) [Compound 43, 5-[(3R)-3-[2-({1-[2-(2,6-dioxopiperidin-3-yl)-1,3-dioxoisoindol-5-yl]piperidin-4-yl}methyl)-6-oxo-5-oxa-2,7-diazaspiro[3.4]octan-7-yl]piperidin-1-yl]-3-[(1-methylpyrazol-4-yl)amino]pyrazine-2-carboxamide]: the DC50 is less than 7.5 nM.

For the compound `CS(=O)(=O)c1ccc(Nc2nc(N3CCC[C@@H](NC(=O)N4CCN(Cc5ccc6c(c5)C(=O)N(C5CCC(=O)NC5=O)C6=O)CC4)C3)cnc2C(N)=O)cc1` (stereo partly drawn) [Compound 26, 5-((3R)-3-(4-((2-(2,6-dioxopiperidin-3-yl)-1,3-dioxoisoindolin-5-yl)methyl)piperazine-1-carboxamido)piperidin-1-yl)-3-((4-(methylsulfonyl)phenyl)amino)pyrazine-2-carboxamide], the DC50 was 50 to 500 nM.

Compound `CS(=O)(=O)c1ccc(Nc2nc(N3CCC[C@@H](NC(=O)[C@H]4CCN(CC5CCN(c6ccc7c(c6)C(=O)N(C6CCC(=O)NC6=O)C7=O)CC5)C4)C3)cnc2C(N)=O)cc1` (stereo partly drawn) [Compound 46, 5-[(3R)-3-[1-({1-[2-(2,6-dioxopiperidin-3-yl)-1,3-dioxoisoindol-5-yl]piperidin-4-yl}methyl)pyrrolidine-3-amido]piperidin-1-yl]-3-[(4-methanesulfonylphenyl)amino]pyrazine-2-carboxamide] gave a DC50 of 7.5 to 50 nM.

Consider `CS(=O)(=O)c1ccc(Nc2nc(N3CCC[C@@H](NC(=O)CCOCCCc4cccc5c4CN(C4CCC(=O)NC4=O)C5=O)C3)cnc2C(N)=O)cc1` (stereo partly drawn) [Compound 47, 5-[(3R)-3-(3-{3-[2-(2,6-dioxopiperidin-3-yl)-1-oxo-3H-isoindol-4-yl]propoxy}propanamido)piperidin-1-yl]-3-[(4-methanesulfonylphenyl)amino] pyrazine-2-carboxamide], for which the DC50 is 50 to 500 nM.

As for `CS(=O)(=O)c1ccc(Nc2nc(N3CCC[C@@H](NC(=O)C4CCN(C5CCN(c6ccc7c(c6)C(=O)N(C6CCC(=O)NC6=O)C7=O)CC5)CC4)C3)cnc2C(N)=O)cc1` (stereo partly drawn) [Compound 40, N—((R)-1-(5-carbamoyl-6-((4-(methylsulfonyl)phenyl)amino)pyrazin-2-yl)piperidin-3-yl)-1′-(2-(2,6-dioxopiperidin-3-yl)-1,3-dioxoisoindolin-5-yl)-[1,4′-bipiperidine]-4-carboxamide], the DC50 is 50 to 500 nM.

In turn, `CS(=O)(=O)c1ccc(Nc2nc(N3CCC[C@@H](NC(=O)[C@H]4[C@@H]5CN(CC6CCN(c7ccc8c(c7)C(=O)N(C7CCC(=O)NC7=O)C8=O)CC6)C[C@@H]54)C3)cnc2C(N)=O)cc1` (stereo partly drawn) [Compound 33, (1R,5S,6r)-N—((R)-1-(5-carbamoyl-6-((4-(methylsulfonyl)phenyl)amino)pyrazin-2-yl)piperidin-3-yl)-3-((1-(2-(2,6-dioxopiperidin-3-yl)-1,3-dioxoisoindolin-5-yl)piperidin-4-yl)methyl)-3-azabicyclo[3.1.0]hexane-6-carboxamide] displayed a DC50 of less than 7.5 nM.

For the compound `Cn1cc(Nc2nc(N3CCC[C@@H](N4CC5(CN(C6CCN(c7ccc8c(c7)C(=O)N(C7CCC(=O)NC7=O)C8=O)CC6)C5)OC4=O)C3)cnc2C(N)=O)cn1` (stereo partly drawn) [Compound 44, 5-[(3R)-3-(2-{1-[2-(2,6-dioxopiperidin-3-yl)-1,3-dioxoisoindol-5-yl]piperidin-4-yl}-6-oxo-5-oxa-2,7-diazaspiro[3.4]octan-7-yl)piperidin-1-yl]-3-[(1-methylpyrazol-4-yl)amino]pyrazine-2-carboxamide], the DC50 is less than 7.5 nM.

As for `CS(=O)(=O)c1ccc(Nc2nc(N3CCC[C@@H](NC(=O)C4CCN(CC5CCN(c6ccc7c(c6)C(=O)N(C6CCC(=O)NC6=O)C7=O)CC5)CC4)C3)cnc2C(N)=O)cc1` (stereo partly drawn) [Compound 20, 5-[(3R)-3-[1-({1-[2-(2,6-dioxopiperidin-3-yl)-1,3-dioxoisoindol-5-yl]piperidin-4-yl}methyl)piperidine-4-amido]piperidin-1-yl]-3-[(4-methanesulfonylphenyl)amino]pyrazine-2-carboxamide], the DC50 is less than 7.5 nM.

The compound `Cc1cc(Nc2nc(N3CCC[C@@H](NC(=O)N4CCN(c5ccc6c(c5)C(=O)N(C5CCC(=O)NC5=O)C6=O)CC4)C3)cnc2C(N)=O)sn1` (stereo partly drawn) [Compound 27, 5-[(3R)-3-{4-[2-(2,6-dioxopiperidin-3-yl)-1,3-dioxoisoindol-5-yl]piperazine-1-carbonylamino}piperidin-1-yl]-3-[(3-methyl-1,2-thiazol-5-yl)amino]pyrazine-2-carboxamide] registered a DC50 of 50 to 500 nM.

For the compound `Cc1cc(Nc2nc(N3CCC[C@@H](NC(=O)C4CCN(C5CCN(c6ccc7c(c6)C(=O)N(C6CCC(=O)NC6=O)C7=O)CC5)CC4)C3)cnc2C(N)=O)sn1` (stereo partly drawn) [Compound 39, N—((R)-1-(5-carbamoyl-6-((3-methylisothiazol-5-yl)amino)pyrazin-2-yl)piperidin-3-yl)-1′-(2-(2,6-dioxopiperidin-3-yl)-1,3-dioxoisoindolin-5-yl)-[1,4′-bipiperidine]-4-carboxamide], the DC50 is less than 7.5 nM.
